According to the NIST ThermoML archive (doi:10.1016/j.jct.2012.01.023):
± gives the expanded uncertainty stated by the source.

Assays:
[1] = xn = mol fraction of the nth substance listed; details: 298.15 K, Drop volume
[2] = for mass density: 298.1 K, 101.33 kPa, Liquid, Vibrating tube method; for surface tension liquid-gas: 298.15 K, Drop volume

Q: For `CCCCOS(=O)(=O)[O-].CC[n+]1ccn(C)c1` [3-ethyl-1-methylimidazolium butyl sulfate] + O, which surface tension liquid-gas ([1]; x1 = 0.0389) is on record?
A: 44.48 ± 0.35 mN/m

Q: And the surface tension liquid-gas ([1]; x1 = 0.0403)?
A: 45.93 ± 0.35 mN/m

Q: And the surface tension liquid-gas ([1]; x1 = 0.0579)?
A: 40.83 ± 0.28 mN/m

Q: What about the surface tension liquid-gas ([1]; x1 = 0.0602) of the same molecule?
A: 41.7 ± 0.28 mN/m

Q: What about the surface tension liquid-gas ([1]; x1 = 0.0758) of the same molecule?
A: 39.85 ± 0.27 mN/m

Q: And the surface tension liquid-gas ([1]; x1 = 0.0805)?
A: 39.96 ± 0.27 mN/m

Q: And the surface tension liquid-gas ([1]; x1 = 0.0934)?
A: 39.08 ± 0.27 mN/m

Q: What about the surface tension liquid-gas ([1]; x1 = 0.0987) of the same molecule?
A: 39.17 ± 0.27 mN/m

Q: And the surface tension liquid-gas ([1]; x1 = 0.1004)?
A: 39.42 ± 0.27 mN/m

Q: What about the surface tension liquid-gas ([1]; x1 = 0.101) of the same molecule?
A: 39.84 ± 0.28 mN/m

Q: And the surface tension liquid-gas ([1]; x1 = 0.12)?
A: 39.74 ± 0.27 mN/m

Q: And the surface tension liquid-gas ([1]; x1 = 0.133)?
A: 40.29 ± 0.28 mN/m

Q: And the surface tension liquid-gas ([1]; x1 = 0.1464)?
A: 40.85 ± 0.28 mN/m

Q: And the surface tension liquid-gas ([1]; x1 = 0.1716)?
A: 41.83 ± 0.29 mN/m

Q: And the surface tension liquid-gas ([1]; x1 = 0.1947)?
A: 41.59 ± 0.29 mN/m

Q: And the surface tension liquid-gas ([1]; x1 = 0.2004)?
A: 41.48 ± 0.29 mN/m

Q: What about the surface tension liquid-gas ([1]; x1 = 0.2585) of the same molecule?
A: 40.83 ± 0.3 mN/m

Q: And the surface tension liquid-gas ([1]; x1 = 0.2973)?
A: 40.81 ± 0.3 mN/m

Q: And the surface tension liquid-gas ([1]; x1 = 0.3957)?
A: 40.04 ± 0.32 mN/m

Q: And the surface tension liquid-gas ([1]; x1 = 0.4017)?
A: 40.31 ± 0.32 mN/m

Q: What about the surface tension liquid-gas ([1]; x1 = 0.4764) of the same molecule?
A: 39.93 ± 0.34 mN/m

Q: What about the surface tension liquid-gas ([1]; x1 = 0.4992) of the same molecule?
A: 40.01 ± 0.34 mN/m

Q: What about the surface tension liquid-gas ([1]; x1 = 0.5868) of the same molecule?
A: 39.89 ± 0.36 mN/m

Q: And the surface tension liquid-gas ([1]; x1 = 0.703)?
A: 39.82 ± 0.39 mN/m

Q: And the surface tension liquid-gas ([1]; x1 = 0.7997)?
A: 39.77 ± 0.42 mN/m

Q: What about the surface tension liquid-gas ([1]; x1 = 0.9034) of the same molecule?
A: 39.67 ± 0.45 mN/m

Q: What about the surface tension liquid-gas ([1]; x1 = 1) of the same molecule?
A: 39.62 ± 0.47 mN/m

Q: For `CCCCOS(=O)(=O)[O-].CC[n+]1ccn(C)c1` [3-ethyl-1-methylimidazolium butyl sulfate], which mass density [2] is on record?
A: 1175.65 ± 1.5 kg/m3

Q: What about the surface tension liquid-gas [2] of the same molecule?
A: 39.64 ± 0.48 mN/m

Q: For `CCCCCCOS(=O)(=O)[O-].CC[n+]1ccn(C)c1` [3-ethyl-1-methyl-1H-imidazolium hexyl sulfate] + O, which surface tension liquid-gas ([1]; x1 = 0.0005) is on record?
A: 62.58 ± 0.96 mN/m

Q: And the surface tension liquid-gas ([1]; x1 = 0.0008)?
A: 58.45 ± 0.83 mN/m

Q: What about the surface tension liquid-gas ([1]; x1 = 0.002) of the same molecule?
A: 49.54 ± 0.9 mN/m

Q: What about the surface tension liquid-gas ([1]; x1 = 0.005) of the same molecule?
A: 42.13 ± 0.56 mN/m

Q: What about the surface tension liquid-gas ([1]; x1 = 0.0196) of the same molecule?
A: 40.27 ± 0.27 mN/m

Q: And the surface tension liquid-gas ([1]; x1 = 0.0396)?
A: 39.55 ± 0.27 mN/m

Q: And the surface tension liquid-gas ([1]; x1 = 0.0602)?
A: 38.88 ± 0.27 mN/m

Q: What about the surface tension liquid-gas ([1]; x1 = 0.0797) of the same molecule?
A: 38.25 ± 0.27 mN/m

Q: And the surface tension liquid-gas ([1]; x1 = 0.0997)?
A: 37.79 ± 0.27 mN/m

Q: And the surface tension liquid-gas ([1]; x1 = 0.1997)?
A: 36.16 ± 0.28 mN/m

Q: What about the surface tension liquid-gas ([1]; x1 = 0.3009) of the same molecule?
A: 35.59 ± 0.29 mN/m

Q: And the surface tension liquid-gas ([1]; x1 = 0.4034)?
A: 35.25 ± 0.3 mN/m

Q: What about the surface tension liquid-gas ([1]; x1 = 0.4957) of the same molecule?
A: 35.05 ± 0.32 mN/m

Q: What about the surface tension liquid-gas ([1]; x1 = 0.5943) of the same molecule?
A: 34.95 ± 0.34 mN/m

Q: And the surface tension liquid-gas ([1]; x1 = 0.705)?
A: 34.87 ± 0.36 mN/m

Q: And the surface tension liquid-gas ([1]; x1 = 0.7893)?
A: 34.82 ± 0.38 mN/m

Q: What about the surface tension liquid-gas ([1]; x1 = 0.8997) of the same molecule?
A: 34.77 ± 0.41 mN/m

Q: And the surface tension liquid-gas ([1]; x1 = 1)?
A: 34.77 ± 0.43 mN/m

Q: Which surface tension liquid-gas ([1]; x1 = 0.066) does the source give for `CCCCOS(=O)(=O)[O-].CC[n+]1ccn(C)c1` [3-ethyl-1-methylimidazolium butyl sulfate] + CCO here?
A: 23.6 ± 0.25 mN/m

Q: And the surface tension liquid-gas ([1]; x1 = 0.1347)?
A: 25.01 ± 0.26 mN/m

Q: And the surface tension liquid-gas ([1]; x1 = 0.1536)?
A: 25.36 ± 0.26 mN/m

Q: What about the surface tension liquid-gas ([1]; x1 = 0.2904) of the same molecule?
A: 27.76 ± 0.28 mN/m

Q: What about the surface tension liquid-gas ([1]; x1 = 0.4691) of the same molecule?
A: 30.63 ± 0.31 mN/m

Q: What about the surface tension liquid-gas ([1]; x1 = 0.4993) of the same molecule?
A: 31.05 ± 0.32 mN/m

Q: What about the surface tension liquid-gas ([1]; x1 = 0.6866) of the same molecule?
A: 33.99 ± 0.36 mN/m

Q: And the surface tension liquid-gas ([1]; x1 = 0.7916)?
A: 35.75 ± 0.4 mN/m

Q: And the surface tension liquid-gas ([1]; x1 = 0.8794)?
A: 37.35 ± 0.43 mN/m

Q: And the surface tension liquid-gas ([1]; x1 = 1)?
A: 39.62 ± 0.47 mN/m

Q: With `CCOS(=O)(=O)[O-].CCn1cc[n+](C)c1` [1-ethyl-3-methylimidazolium ethyl sulfate] as the molecule, how does the mass density [2] read?
A: 1238.3 ± 1.1 kg/m3

Q: And the surface tension liquid-gas [2]?
A: 47.13 ± 0.36 mN/m

Q: Which results are given for `CCCCCCCCOS(=O)(=O)[O-].CCn1cc[n+](C)c1` [1-ethyl-3-methylimidazolium octyl sulfate] + O?
A: surface tension liquid-gas ([1]; x1 = 0.0002): 56.92 ± 0.85 mN/m; surface tension liquid-gas ([1]; x1 = 0.0007): 42.45 ± 0.34 mN/m; surface tension liquid-gas ([1]; x1 = 0.005): 37.84 ± 0.28 mN/m; surface tension liquid-gas ([1]; x1 = 0.011): 37.19 ± 0.26 mN/m; surface tension liquid-gas ([1]; x1 = 0.0198): 36.69 ± 0.26 mN/m; surface tension liquid-gas ([1]; x1 = 0.0349): 35.3 ± 0.26 mN/m; surface tension liquid-gas ([1]; x1 = 0.0506): 34.96 ± 0.26 mN/m; surface tension liquid-gas ([1]; x1 = 0.0774): 33.87 ± 0.26 mN/m; surface tension liquid-gas ([1]; x1 = 0.0937): 33.62 ± 0.26 mN/m; surface tension liquid-gas ([1]; x1 = 0.2846): 31.01 ± 0.27 mN/m; surface tension liquid-gas ([1]; x1 = 0.4): 30.48 ± 0.28 mN/m; surface tension liquid-gas ([1]; x1 = 0.5127): 30.72 ± 0.3 mN/m; surface tension liquid-gas ([1]; x1 = 0.5677): 30.67 ± 0.31 mN/m; surface tension liquid-gas ([1]; x1 = 0.6347): 30.71 ± 0.32 mN/m; surface tension liquid-gas ([1]; x1 = 0.6934): 30.74 ± 0.33 mN/m; surface tension liquid-gas ([1]; x1 = 0.7018): 30.77 ± 0.34 mN/m; surface tension liquid-gas ([1]; x1 = 0.7373): 30.7 ± 0.34 mN/m; surface tension liquid-gas ([1]; x1 = 0.766): 30.81 ± 0.35 mN/m; surface tension liquid-gas ([1]; x1 = 0.8287): 30.71 ± 0.36 mN/m; surface tension liquid-gas ([1]; x1 = 0.8904): 30.79 ± 0.37 mN/m; surface tension liquid-gas ([1]; x1 = 1): 30.91 ± 0.4 mN/m

Q: For `O` [water] + CCOS(=O)(=O)[O-].CCn1cc[n+](C)c1, which surface tension liquid-gas ([1]; x2 = 0) is on record?
A: 71.35 ± 0.33 mN/m

Q: Which mass density [2] does the source give for `CCCCCCCCOS(=O)(=O)[O-].CCn1cc[n+](C)c1` [1-ethyl-3-methylimidazolium octyl sulfate] here?
A: 1093.75 ± 1.4 kg/m3

Q: What about the surface tension liquid-gas [2] of the same molecule?
A: 31.29 ± 0.4 mN/m

Q: With `CCO` [ethanol] + CCOS(=O)(=O)[O-].CCn1cc[n+](C)c1 as the molecule, how does the surface tension liquid-gas ([1]; x2 = 0) read?
A: 22.01 ± 0.24 mN/m
